Experiments:
U118 = assay: Apoptosis assay (Cellomics, nucleus condensation); format: cell-based; conditions: Table III, read-out: Apoptosis induction in U118
In short: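 Cells at 5000 per well were stained live with Hoechst 33342 and imaged on an automated fluorescence microscope after 24 h and 48 h compound exposure (12.5 μM down to 0.39 μM, twofold steps; DMSO control). Per-nucleus intensity variation quantified nuclear condensation; cell counts were also recorded.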

[1] = target: T1, wild type AXL (wtAXL) receptor tyrosine kinase (Homo sapiens, UniProt P30530); assay: NIH-3T3-AXL cellular kinase assay (pY-AXL-ELISA); format: cell-based; conditions: NIH-3T3-AXL (clone 22) cells, serum depleted, compounds 1 h; Table Ia
T1 construct: WtAXL cDNA was cloned into vector pLXSN(ESK) and transfected into Phoenix E packaging cells; expressed in transfected cells; host or cells: NIH3T3 N7 (mouse fibroblasts), retrovirally infected, clone 22
T1 sequence (P30530 26-894): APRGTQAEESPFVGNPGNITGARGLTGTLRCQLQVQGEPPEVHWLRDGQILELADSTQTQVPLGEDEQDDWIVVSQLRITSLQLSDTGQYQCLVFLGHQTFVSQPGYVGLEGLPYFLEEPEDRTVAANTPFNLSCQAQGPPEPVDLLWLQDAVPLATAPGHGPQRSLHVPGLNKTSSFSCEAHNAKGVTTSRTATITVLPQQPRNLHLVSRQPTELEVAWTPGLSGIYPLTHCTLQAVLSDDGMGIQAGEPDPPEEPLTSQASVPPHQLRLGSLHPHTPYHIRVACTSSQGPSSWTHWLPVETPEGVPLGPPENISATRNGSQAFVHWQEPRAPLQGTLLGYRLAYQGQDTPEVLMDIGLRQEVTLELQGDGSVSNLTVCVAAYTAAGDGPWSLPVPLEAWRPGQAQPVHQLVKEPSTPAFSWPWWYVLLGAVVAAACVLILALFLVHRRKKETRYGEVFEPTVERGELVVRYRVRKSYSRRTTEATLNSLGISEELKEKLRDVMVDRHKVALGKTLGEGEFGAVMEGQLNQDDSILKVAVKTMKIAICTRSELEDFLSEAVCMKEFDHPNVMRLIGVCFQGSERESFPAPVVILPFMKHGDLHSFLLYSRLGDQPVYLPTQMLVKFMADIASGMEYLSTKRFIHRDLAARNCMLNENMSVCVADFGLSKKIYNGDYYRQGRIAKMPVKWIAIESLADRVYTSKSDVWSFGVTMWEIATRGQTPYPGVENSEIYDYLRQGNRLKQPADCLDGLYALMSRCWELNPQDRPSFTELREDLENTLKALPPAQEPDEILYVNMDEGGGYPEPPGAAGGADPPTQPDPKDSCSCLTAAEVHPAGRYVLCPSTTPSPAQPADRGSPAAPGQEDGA
In short: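 Phospho-AXL was quantified by ELISA in lysates (4G10-biotin, streptavidin-AP, AttoPhos, 430/560 nm read at 90 min). The cells were monoclonal NIH3T3 lines stably transduced with human wtAXL, exposed to serial compound dilutions for 1 h before lysis.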

SMILES	IC50 (U118) [µM]	IC50 [1] [µM]
COc1cc2c(Oc3ccc(NS(=O)(=O)c4cc(Cl)cc(Cl)c4OC)cc3F)ccnc2cc1OCCCN1CCCCC1 [Example 34, 3,5-Dichloro-N-{3-fluoro-4-[6-methoxy-7-(3-piperidin-1-yl-propoxy)-quinolin-4-yloxy]-phenyl}-2-methoxy-benzenesulfonamide]	≤ 12.5	< 0.5
COc1cc2c(Oc3cccc(NS(=O)(=O)c4ccccc4C(F)(F)F)c3)ccnc2cc1OCCCN1CCN(C)CC1 [Example 102, N-(3-{6-Methoxy-7-[3-(4-methyl-piperazin-1-yl)-propoxy]-quinolin-4-yloxy}-phenyl)-2-trifluoromethyl-benzenesulfonamide]	≤ 12.5	
COc1cc2c(Oc3ccc(NS(=O)(=O)c4c(F)cccc4F)cc3F)ccnc2cc1OCCCN1CCOCC1 [Example 77, 2,6-Difluoro-N-{3-fluoro-4-[6-methoxy-7-(3-morpholin-4-yl-propoxy)-quinolin-4-yloxy]-phenyl}-benzenesulfonamide]	≤ 12.5	< 0.5
COc1cc2c(Oc3ccc(NS(=O)(=O)c4cc(F)ccc4F)cc3F)ccnc2cc1OCCCN1CCCCC1 [Example 1, 2,5-Difluoro-N-{3-fluoro-4-[6-methoxy-7-(3-piperidin-1-yl-propoxy)-quinolin-4-yloxy]-phenyl}-benzenesulfonamide]	≤ 12.5	
COc1cc2c(Oc3ccc(NS(=O)(=O)c4ccccc4F)cc3F)ccnc2cc1OCCN1CCOCC1 [Example 81, 2-Fluoro-N-{3-fluoro-4-[6-methoxy-7-(2-morpholin-4-yl-ethoxy)-quinolin-4-yloxy]-phenyl}-benzenesulfonamide]	≤ 12.5	< 0.5
COc1cc2c(Oc3ccc(NS(=O)(=O)c4c(Cl)cccc4Cl)cc3F)ccnc2cc1OCCCN1CCN(C)CC1 [Example 32, 2,6-Dichloro-N-(3-fluoro-4-{6-methoxy-7-[3-(4-methyl-piperazin-1-yl)-propoxy]-quinolin-4-yloxy}-phenyl)-benzenesulfonamide]	≤ 12.5	
COc1cc2c(Oc3ccc(NS(=O)(=O)c4ccccc4C(F)(F)F)cc3F)ccnc2cc1OCCCN1CCCCC1C (stereo not drawn) [Example 99, N-(3-Fluoro-4-{6-methoxy-7-[3-(2-methyl-piperidin-1-yl)-propoxy]-quinolin-4-yloxy}-phenyl)-2-trifluoromethyl-benzenesulfonamide]	12.5 to 50	
COc1cc2c(Oc3ccc(NS(=O)(=O)c4ccccc4C(F)(F)F)cc3F)ccnc2cc1OCC(=O)N(C)C [Example 93, 2-{4-[2-Fluoro-4-(2-trifluoromethyl-benzenesulfonylamino)-phenoxy]-6-methoxy-quinolin-7-yloxy}-N,N-dimethyl-acetamide]	≤ 12.5	
COc1cc2c(Oc3ccc(NS(=O)(=O)c4ccccc4OC(F)(F)F)cc3F)ccnc2cc1OCCCN1CCN(C)CC1 [Example 25, N-(3-Fluoro-4-{6-methoxy-7-[3-(4-methyl-piperazin-1-yl)-propoxy]-quinolin-4-yloxy}-phenyl)-2-trifluoromethoxy-benzenesulfonamide]	≤ 12.5	
COc1cc2c(Oc3ccc(NS(=O)(=O)c4ccccc4C(F)(F)F)cc3F)ccnc2cc1OCCCNC1CCOCC1 [Example 95, N-(3-Fluoro-4-{6-methoxy-7-[3-(tetrahydro-pyran-4-ylamino)-propoxy]-quinolin-4-yloxy}-phenyl)-2-trifluoromethyl-benzenesulfonamide]	≤ 12.5	
COc1cc2c(Oc3c(Cl)cc(NS(=O)(=O)c4c(F)cccc4F)cc3Cl)ccnc2cc1OCCCN1CCN(C)CC1 [Example 88, N-(3,5-Dichloro-4-{6-methoxy-7-[3-(4-methyl-piperazin-1-yl)-propoxy]-quinolin-4-yloxy}-phenyl)-2,6-difluoro-benzenesulfonamide]	≤ 12.5	
COc1cc2c(Oc3ccc(NS(=O)(=O)c4ccccc4C(F)(F)F)cc3F)ccnc2cc1OCCCN(C)C [Example 100, N-{4-[7-(3-Dimethylamino-propoxy)-6-methoxy-quinolin-4-yloxy]-3-fluoro-phenyl}-2-trifluoromethyl-benzenesulfonamide]	12.5 to 50	

Further lines, results first:

IC50 (U118) [µM]	IC50 [1] [µM]	SMILES
≤ 12.5		COc1cc2c(Oc3ccc(NS(=O)(=O)c4ccc(F)c(C#N)c4)cc3F)ccnc2cc1OCCCN1CCCC(C)C1 (stereo not drawn) [Example 72, 3-Cyano-4-fluoro-N-(3-fluoro-4-{6-methoxy-7-[3-(3-methyl-piperidin-1-yl)-propoxy]-quinolin-4-yloxy}-phenyl)-benzenesulfonamide]
≤ 12.5	< 0.5	COc1cc2c(Oc3ccc(NS(=O)(=O)c4ccc(F)cc4F)cc3F)ccnc2cc1OCCCN1CCCC(C)C1 (stereo not drawn) [Example 47, 2,4-Difluoro-N-(3-fluoro-4-{6-methoxy-7-[3-(3-methyl-piperidin-1-yl)-propoxy]-quinolin-4-yloxy}-phenyl)-benzenesulfonamide]
≤ 12.5	< 0.5	COc1cc2c(Oc3ccc(NS(=O)(=O)c4ccc(Cl)s4)cc3F)ccnc2cc1OCCCN1CCCC(C)C1 (stereo not drawn) [Example 63, 5-Chloro-thiophene-2-sulfonic acid (3-fluoro-4-{6-methoxy-7-[3-(3-methyl-piperidin-1-yl)-propoxy]-quinolin-4-yloxy}-phenyl)-amide]
≤ 12.5		COc1cc2c(Oc3ccc(NS(=O)(=O)c4cccc(C#N)c4)cc3F)ccnc2cc1OCCCN1CCCC(C)C1 (stereo not drawn) [Example 41, 3-Cyano-N-(3-fluoro-4-{6-methoxy-7-[3-(3-methyl-piperidin-1-yl)-propoxy]-quinolin-4-yloxy}-phenyl)-benzenesulfonamide]
≤ 12.5	< 0.5	COc1cc2c(Oc3ccc(NS(=O)(=O)c4ccc(C)c(F)c4)cc3F)ccnc2cc1OCCCN1CCCC(C)C1 (stereo not drawn) [Example 56, 3-Fluoro-N-(3-fluoro-4-{6-methoxy-7-[3-(3-methyl-piperidin-1-yl)-propoxy]-quinolin-4-yloxy}-phenyl)-4-methyl-benzenesulfonamide]
12.5 to 50		COc1cc2c(Oc3ccc(NS(=O)(=O)c4cccc(Oc5ccccc5)c4)cc3F)ccnc2cc1OCCCN1CCN(C)CC1 [Example 14, N-(3-Fluoro-4-{6-methoxy-7-[3-(4-methyl-piperazin-1-yl)-propoxy]-quinolin-4-yloxy}-phenyl)-3-phenoxy-benzenesulfonamide]
12.5 to 50		COc1cc2c(Oc3ccc(NS(=O)(=O)c4ccccc4OC)cc3F)ccnc2cc1OCCCN1CCN(C)CC1 [Example 33, N-(3-Fluoro-4-{6-methoxy-7-[3-(4-methyl-piperazin-1-yl)-propoxy]-quinolin-4-yloxy}-phenyl)-2-methoxy-benzenesulfonamide]
≤ 12.5	< 0.5	COc1cc2c(Oc3ccc(NS(=O)(=O)c4cccc(Oc5ccccc5)c4)cc3F)ccnc2cc1OCCCN1CCCCC1 [Example 10, N-{3-Fluoro-4-[6-methoxy-7-(3-piperidin-1-yl-propoxy)-quinolin-4-yloxy]-phenyl}-3-phenoxy-benzenesulfonamide]
12.5 to 50	< 0.5	COc1cc2c(Oc3ccc(NS(=O)(=O)c4cc(C)ccc4F)cc3F)ccnc2cc1OCCCN1CCCC(C)C1 (stereo not drawn) [Example 55]
12.5 to 50	< 0.5	COc1cc2c(Oc3ccc(NS(=O)(=O)c4cccc5ccccc45)cc3F)ccnc2cc1OCCCN1CCCC(C)C1 (stereo not drawn) [Example 58, Naphthalene-1-sulfonic acid (3-fluoro-4-{6-methoxy-7-[3-(3-methyl-piperidin-1-yl)-propoxy]-quinolin-4-yloxy}-phenyl)-amide]
≤ 12.5		COc1cc2c(Oc3ccc(NS(=O)(=O)c4ccccc4[N+](=O)[O-])cc3F)ccnc2cc1OCCCN1CCN(C)CC1 [Example 21, N-(3-Fluoro-4-{6-methoxy-7-[3-(4-methyl-piperazin-1-yl)-propoxy]-quinolin-4-yloxy}-phenyl)-2-nitro-benzenesulfonamide]
≤ 12.5		COc1cc2c(Oc3ccc(NS(=O)(=O)c4cccc(C)c4)cc3F)ccnc2cc1OCCCN1CCCC(C)C1 (stereo not drawn) [Example 70, N-(3-Fluoro-4-{6-methoxy-7-[3-(3-methyl-piperidin-1-yl)-propoxy]-quinolin-4-yloxy}-phenyl)-3-methyl-benzenesulfonamide]

Source: US9169241B2, “Quinolinyloxyphenylsulfonamides” (Max-Planck-Gesellschaft Zur Forderung der Wissenschaften …, priority 2009, dated 2015)
